In patent US10696707B2, “Polyene macrolide derivative” (Shionogi & Co., Ltd., priority 2014, dated 2020):
≈ marks a conversion by molar mass, not a printed value.

Columns and labels:
Type in all cases: cell-based
[1] = test system: A. fumigatus ATCC204305; experiment: Antifungal activity test, MIC by broth microdilution (CLSI M38-A2); settings: A. fumigatus ATCC204305, 35° C., 24-48 hours
Method: (§1) The Minimum Inhibitory Concentration (MIC) values of the present compound against yeast and filamentous fungi were determined by broth microdilution assay according to the Clinical Laboratory Standards Institute (CLSI) guidelines outlined in documents M27-A3 and M38-A2. The medium used in the assay consisted of RPMI1640 (with glutamine, without bicarbonate) with 2% glucose and 0.165 mol/L morpholinepropanesulfonic acid (MOPS) with pH adjusted to 7.0 using 1 mol/L sodium hydroxide. The present compound was dissolved in dimethyl sulfoxide (DMSO). A series of two-fold dilutions were prepared in DMSO, and then 2 μL of the diluted compound was added to each well in 96-well sterile plates. Each inoculum was prepared by diluting a suspension of Candida spp. or a conidia suspension of Aspergillus spp. suspended in sterile saline solution, and then 200 μL was added to each well to a predetermined concentration using RPMI/MOPS (final concentration for each solution: approximately 1×10^3 cells/mL and approximately 1×10^4 CFU/mL). Plates of Candida spp. and Aspergillus spp. were incubated at 35° C. for 24-48 hours. The MIC was defined as the lowest concentration giving 100% inhibition compared to the growth control.

[2] = test system: A. flavus ATCC204304; experiment: as above; settings: A. flavus ATCC204304, 35° C., 24-48 hours
Method: as §1

[3] = test system: C. albicans ATCC90028; experiment: Antifungal activity test, MIC by broth microdilution (CLSI M27-A3); settings: C. albicans ATCC90028, 35° C., 24-48 hours
Method: as §1

[4] = broth microdilution, 100% inhibition
[5] = lowest concentration giving 100% inhibition

MIC [1, 4] [µg/mL]	MIC [2, 4] [µg/mL]	MIC [3, 4] [µg/mL]	MIC [1, 5] [µg/mL]	MIC [2, 5] [µg/mL]	MIC [3, 5] [µg/mL]	Compound
1 (≈ 0.963 µM)	0.5 (≈ 0.482 µM)	0.25 (≈ 0.241 µM)				C[C@@H]1[C@H](O)[C@@H](C)/C=C/C=C/C=C/C=C/C=C/C=C/C=C/[C@H](O[C@@H]2O[C@H](C)[C@@H](O)[C@H](N)[C@@H]2O)C[C@@H]2O[C@](O)(C[C@@H](O)C[C@@H](O)[C@H](O)CC[C@@H](O)C[C@@H](O)CC(=O)O[C@H]1C)C[C@H](O)[C@H]2NC(=O)NCC1(CO)COC1 [I-193]
			1 (≈ 0.99 µM)	1 (≈ 0.99 µM)	0.25 (≈ 0.247 µM)	CONC(=O)N[C@H]1[C@@H]2C[C@@H](O[C@@H]3O[C@H](C)[C@@H](O)[C@H](NC(=N)N)[C@@H]3O)/C=C/C=C/C=C/C=C/C=C/C=C/C=C/[C@H](C)[C@@H](O)[C@@H](C)[C@H](C)OC(=O)C[C@H](O)C[C@H](O)CC[C@@H](O)[C@H](O)C[C@H](O)C[C@](O)(C[C@@H]1O)O2 [I-331]
1 (≈ 0.967 µM)	0.5 (≈ 0.483 µM)	0.5 (≈ 0.483 µM)				C[C@@H]1[C@H](O)[C@@H](C)/C=C/C=C/C=C/C=C/C=C/C=C/C=C/[C@H](O[C@@H]2O[C@H](C)[C@@H](O)[C@H](N)[C@@H]2O)C[C@@H]2O[C@](O)(C[C@@H](O)C[C@@H](O)[C@H](O)CC[C@@H](O)C[C@@H](O)CC(=O)O[C@H]1C)C[C@H](O)[C@H]2NC(=O)NCC(=O)NCC#N [I-157]
1 (≈ 0.965 µM)	0.5 (≈ 0.483 µM)	0.5 (≈ 0.483 µM)				C[C@@H]1[C@H](O)[C@@H](C)/C=C/C=C/C=C/C=C/C=C/C=C/C=C/[C@H](O[C@@H]2O[C@H](C)[C@@H](O)[C@H](N)[C@@H]2O)C[C@@H]2O[C@](O)(C[C@@H](O)C[C@@H](O)[C@H](O)CC[C@@H](O)C[C@@H](O)CC(=O)O[C@H]1C)C[C@H](O)[C@H]2NC(=O)NCC1(C(=O)O)CC1 [I-202]
0.5 (≈ 0.494 µM)	0.5 (≈ 0.494 µM)	0.5 (≈ 0.494 µM)				C[C@@H]1[C@H](O)[C@@H](C)/C=C/C=C/C=C/C=C/C=C/C=C/C=C/[C@H](O[C@@H]2O[C@H](C)[C@@H](O)[C@H](N)[C@@H]2O)C[C@@H]2O[C@](O)(C[C@@H](O)C[C@@H](O)[C@H](O)CC[C@@H](O)C[C@@H](O)CC(=O)O[C@H]1C)C[C@H](O)[C@H]2NC(=O)N(O)CC(=O)O [I-276]
			1 (≈ 0.91 µM)	0.5 (≈ 0.455 µM)	0.5 (≈ 0.455 µM)	C[C@@H]1[C@H](O)[C@@H](C)/C=C/C=C/C=C/C=C/C=C/C=C/C=C/[C@H](O[C@@H]2O[C@H](C)[C@@H](O)[C@H](NC(=N)NO)[C@@H]2O)C[C@@H]2O[C@](O)(C[C@@H](O)C[C@@H](O)[C@H](O)CC[C@@H](O)C[C@@H](O)CC(=O)O[C@H]1C)C[C@H](O)[C@H]2NC(=O)NNC(=O)[C@H](O)CO [I-380]
0.5 (≈ 0.516 µM)	0.5 (≈ 0.516 µM)	0.25 (≈ 0.258 µM)				C[C@@H]1[C@H](O)[C@@H](C)/C=C/C=C/C=C/C=C/C=C/C=C/C=C/[C@H](O[C@@H]2O[C@H](C)[C@@H](O)[C@H](N)[C@@H]2O)C[C@@H]2O[C@](O)(C[C@@H](O)C[C@@H](O)[C@H](O)CC[C@@H](O)C[C@@H](O)CC(=O)O[C@H]1C)C[C@H](O)[C@H]2NC(=O)N(C)O [I-266]
1 (≈ 0.95 µM)	0.5 (≈ 0.475 µM)	0.5 (≈ 0.475 µM)				C[C@@H]1[C@H](O)[C@@H](C)/C=C/C=C/C=C/C=C/C=C/C=C/C=C/[C@H](O[C@@H]2O[C@H](C)[C@@H](O)[C@H](N)[C@@H]2O)C[C@@H]2O[C@](O)(C[C@@H](O)C[C@@H](O)[C@H](O)CC[C@@H](O)C[C@@H](O)CC(=O)O[C@H]1C)C[C@H](O)[C@H]2NC(=O)N1C[C@H](O)CC1C(=O)O (stereo partly drawn) [I-230]
0.5 (≈ 0.502 µM)	0.5 (≈ 0.502 µM)	0.25 (≈ 0.251 µM)				C[C@@H]1[C@H](O)[C@@H](C)/C=C/C=C/C=C/C=C/C=C/C=C/C=C/[C@H](O[C@@H]2O[C@H](C)[C@@H](O)[C@H](N)[C@@H]2O)C[C@@H]2O[C@](O)(C[C@@H](O)C[C@@H](O)[C@H](O)CC[C@@H](O)C[C@@H](O)CC(=O)O[C@H]1C)C[C@H](O)[C@H]2NC(=O)NCC(N)=O [I-90]
